These results are taken from US8765773B2, “Substituted hydroxamic acids and uses thereof” (Millennium Pharmaceuticals, Inc., priority 2010, dated 2014).

One may read the inhibition as the percentage by which the read-out fell short of the control.

The first test addresses T1, purified human HDAC6 (Homo sapiens, UniProt Q9UBN7).
T1 construct: purchased BPS Bioscience 5006
T1 sequence (Q9UBN7 1-1215): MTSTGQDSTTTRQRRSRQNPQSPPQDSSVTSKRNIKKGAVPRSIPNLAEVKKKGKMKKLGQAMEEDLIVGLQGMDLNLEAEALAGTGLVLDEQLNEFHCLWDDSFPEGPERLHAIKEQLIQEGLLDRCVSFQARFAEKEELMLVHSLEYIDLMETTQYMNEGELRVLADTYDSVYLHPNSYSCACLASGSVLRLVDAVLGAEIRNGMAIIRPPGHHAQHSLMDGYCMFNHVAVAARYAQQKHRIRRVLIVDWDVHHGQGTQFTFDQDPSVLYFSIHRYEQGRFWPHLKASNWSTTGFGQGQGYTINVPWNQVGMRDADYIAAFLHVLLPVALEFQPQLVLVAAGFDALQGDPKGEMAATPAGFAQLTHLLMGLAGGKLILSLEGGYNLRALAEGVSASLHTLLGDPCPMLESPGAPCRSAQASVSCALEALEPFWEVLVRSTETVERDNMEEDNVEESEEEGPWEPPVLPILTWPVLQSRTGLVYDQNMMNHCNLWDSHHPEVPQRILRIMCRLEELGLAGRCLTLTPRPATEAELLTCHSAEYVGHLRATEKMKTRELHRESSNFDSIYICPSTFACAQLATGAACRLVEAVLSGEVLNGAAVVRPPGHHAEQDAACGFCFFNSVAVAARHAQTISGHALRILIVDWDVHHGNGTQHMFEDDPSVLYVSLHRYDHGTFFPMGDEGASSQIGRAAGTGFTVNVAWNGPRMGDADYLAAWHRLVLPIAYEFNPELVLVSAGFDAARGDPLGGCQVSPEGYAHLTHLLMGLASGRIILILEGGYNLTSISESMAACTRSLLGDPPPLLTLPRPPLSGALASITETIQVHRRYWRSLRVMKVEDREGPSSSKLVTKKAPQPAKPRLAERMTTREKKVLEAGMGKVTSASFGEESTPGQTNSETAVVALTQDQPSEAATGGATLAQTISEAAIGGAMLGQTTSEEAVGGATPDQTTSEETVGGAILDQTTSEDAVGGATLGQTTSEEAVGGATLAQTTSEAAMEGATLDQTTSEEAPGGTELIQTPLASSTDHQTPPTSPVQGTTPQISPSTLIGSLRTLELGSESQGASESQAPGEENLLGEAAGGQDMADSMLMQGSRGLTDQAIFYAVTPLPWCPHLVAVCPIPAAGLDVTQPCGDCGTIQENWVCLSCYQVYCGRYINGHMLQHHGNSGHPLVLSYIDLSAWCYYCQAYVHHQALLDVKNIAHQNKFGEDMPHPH
The test can be described thus: HDAC6 Enzyme Assay. The following applies: compound concentration 0.37 μM, read-out: Percent Inhibition. It is filed as biochemical. How it is done:
To measure the inhibition of HDAC6 activity, purified human HDAC6 (BPS Bioscience; Cat. No. 5006) is incubated with substrate Ac-Arg-Gly-Lys(Ac)-AMC peptide (Bachem Biosciences; Cat. No. I-1925) for 1 hour at 30° C. in the presence of test compounds or vehicle DMSO control. The reaction is stopped with the HDAC inhibitor trichostatin A (Sigma; Cat. No. T8552) and the amount of Arg-Gly-Lys-AMC generated is quantitated by digestion with trypsin (Sigma; Cat. No. T1426) and subsequent measurement of the amount of AMC released using a fluorescent plate reader (Pherastar; BMG Technologies) set at Ex 340 nm and Em 460 nm. Concentration response curves are generated by calculating the fluorescence increase in test compound-treated samples relative to DMSO-treated controls, and percentage inhibition values at a single concentration or enzyme inhibition (IC50) values are determined from those curves. One skilled in the art will appreciate that the values generated either as percentage inhibition at a single concentration or IC50 values are subject to experimental variation.
With `CC(C)c1ccc(-c2cccc(Cn3cnc4ccc(C(=O)NO)cc4c3=O)c2)cc1` [Compound I-32, N-hydroxy-3-[(4′-isopropylbiphenyl-3-yl)methyl]-4-oxo-3,4-dihydroquinazoline-6-carboxamide], the inhibition at 0.37 µM stood at 83.6%.
On the same count and under the same terms, next, `Cc1ccccc1Cc1nc2cc(C(=O)NO)ccc2c(=O)n1Cc1ccc(C(F)(F)F)cc1` [Compound I-35, N-hydroxy-2-(2-methylbenzyl)-4-oxo-3-[4-(trifluoromethyl)benzyl]-3,4-dihydroquinazoline-7-carboxamide]: 66%; `O=C(NO)c1ccc2ncn(Cc3cccc(-c4cccc(OC(F)(F)F)c4)c3)c(=O)c2c1` [Compound I-37, N-hydroxy-4-oxo-3-{[3′-(trifluoromethoxy)biphenyl-3-yl]methyl}-3,4-dihydroquinazoline-6-carboxamide]: 89.8%.
Regarding `O=C(NO)c1ccc2c(=O)n(Cc3ccc(C(F)(F)F)cc3)c(CCc3ccccc3)nc2c1` [Compound I-39, N-hydroxy-4-oxo-2-(2-phenylethyl)-3-[4-(trifluoromethyl)benzyl]-3,4-dihydroquinazoline-7-carboxamide], the inhibition at 0.37 µM was 84.5%.
Consider `O=C(NO)c1ccc2ncn(CCN3CCCCC3)c(=O)c2c1` [Compound I-41, N-hydroxy-4-oxo-3-(2-piperidin-1-ylethyl)-3,4-dihydroquinazoline-6-carboxamide], for which the inhibition at 0.37 µM turned out to be 73.2%.
Still for that read-out and setting: then `O=C(NO)c1ccc2ccn(CCN(C(=O)C3CC3)c3cccc(-n4cccn4)c3)c(=O)c2c1` [Compound I-45, 2-(2-{(cyclopropylcarbonyl)[3-(1H-pyrazol-1-yl)phenyl]amino}ethyl)-N-hydroxy-1-oxo-1,2-dihydroisoquinoline-7-carboxamide], with 89.6%; and `O=C(NO)c1ccc2ncn(Cc3cccc(-c4cccc(C(F)(F)F)c4)c3)c(=O)c2c1` [Compound I-46, N-hydroxy-4-oxo-3-{[3′-(trifluoromethyl)biphenyl-3-yl]methyl}-3,4-dihydroquinazoline-6-carboxamide], with 94.4%.
On to `O=C(NO)c1ccc2c(=O)n(Cc3ccc(C(F)(F)F)cc3)c(CC3CCCCC3)nc2c1` [Compound I-53, 2-(cyclohexylmethyl)-N-hydroxy-4-oxo-3-[4-(trifluoromethyl)benzyl]-3,4-dihydroquinazoline-7-carboxamide], for which the inhibition at 0.37 µM worked out at 65.5%.

The same test, now with this note: compound concentration 0.412 μM, read-out: Percent Inhibition.
As to `O=C(NO)c1ccc2ncn(Cc3ccc(C(F)(F)F)cc3)c(=O)c2c1` [Compound I-30, N-hydroxy-4-oxo-3-[4-(trifluoromethyl)benzyl]-3,4-dihydroquinazoline-6-carboxamide], the inhibition at 0.412 µM is 93.6%.
In the case of `O=C(NO)c1ccc2ccn(Cc3cccc(OCc4ccccc4)c3)c(=O)c2c1` [Compound I-31, 2-[3-(benzyloxy)benzyl]-N-hydroxy-1-oxo-1,2-dihydroisoquinoline-7-carboxamide], the inhibition at 0.412 µM turned out to be 89.5%.
On the same count and under the same terms, next, `Cc1cc(C)cc(Cn2ccc3ccc(C(=O)NO)cc3c2=O)c1` [Compound I-33, 2-(3,5-dimethylbenzyl)-N-hydroxy-1-oxo-1,2-dihydroisoquinoline-7-carboxamide]: 94.4%; `COc1ccc(NCCCn2ccc3ccc(C(=O)NO)cc3c2=O)cc1` [Compound I-34, N-hydroxy-2-{3-[(4-methoxyphenyl)amino]propyl}-1-oxo-1,2-dihydroisoquinoline-7-carboxamide]: 94.3%.
Same read-out and setting: then `O=C(NO)c1ccc2ncn(Cc3ccccc3C(F)(F)F)c(=O)c2c1` [Compound I-36, N-hydroxy-4-oxo-3-[2-(trifluoromethyl)benzyl]-3,4-dihydroquinazoline-6-carboxamide], with 91.8%.
Same read-out and setting: next, `Cc1ccccc1OCCCn1ccc2ccc(C(=O)NO)cc2c1=O` [Compound I-38, N-hydroxy-2-[3-(2-methylphenoxy)propyl]-1-oxo-1,2-dihydroisoquinoline-7-carboxamide]: 96.1%.
Turning to `CC(C)Nc1nc2cc(C(=O)NO)ccc2c(=O)n1-c1ccc(Cl)cc1` [Compound I-40, 3-(4-chlorophenyl)-N-hydroxy-2-(isopropylamino)-4-oxo-3,4-dihydroquinazoline-7-carboxamide], the inhibition at 0.412 µM was determined as 44.5%.
Turning to `O=C(NO)c1ccc2ccn(CCCOc3ccc4c(c3)CCC4)c(=O)c2c1` [Compound I-42, 2-[3-(2,3-dihydro-1H-inden-5-yloxy)propyl]-N-hydroxy-1-oxo-1,2-dihydroisoquinoline-7-carboxamide], the inhibition at 0.412 µM amounted to 94.4%.
The same measure, in the same setting: next, `O=C(NO)c1ccc2c(=O)n(Cc3cccc(Cl)c3)cnc2c1` [Compound I-43, 3-(3-chlorobenzyl)-N-hydroxy-4-oxo-3,4-dihydroquinazoline-7-carboxamide]: 96.1%; `CCCC(C)n1ccc2ccc(C(=O)NO)cc2c1=O` (stereo not drawn) [Compound I-44, N-hydroxy-2-(1-methylbutyl)-1-oxo-1,2-dihydroisoquinoline-7-carboxamide]: 91.8%; `Cn1c(NCc2ccncc2)nc2cc(C(=O)NO)ccc2c1=O` [Compound I-47, N-hydroxy-3-methyl-4-oxo-2-[(pyridin-4-ylmethyl)amino]-3,4-dihydroquinazoline-7-carboxamide]: 44.2%.
For `COc1ccccc1OCCn1ccc2ccc(C(=O)NO)cc2c1=O` [Compound I-48, N-hydroxy-2-[2-(2-methoxyphenoxy)ethyl]-1-oxo-1,2-dihydroisoquinoline-7-carboxamide], the inhibition at 0.412 µM came out at 97%.
On the same count and under the same terms, then `COc1ccc(Nc2nc3cc(C(=O)NO)ccc3c(=O)n2C)cc1` [Compound I-49, N-hydroxy-2-[(4-methoxyphenyl)amino]-3-methyl-4-oxo-3,4-dihydroquinazoline-7-carboxamide], with 55%; and `O=C(NO)c1ccc2ccn(Cc3ccc(F)cc3Cl)c(=O)c2c1` [Compound I-50, 2-(2-chloro-4-fluorobenzyl)-N-hydroxy-1-oxo-1,2-dihydroisoquinoline-7-carboxamide], with 94.9%; and `CS(=O)(=O)c1ccccc1OCCCn1ccc2ccc(C(=O)NO)cc2c1=O` [Compound I-51, N-hydroxy-2-{3-[2-(methylsulfonyl)phenoxy]propyl}-1-oxo-1,2-dihydroisoquinoline-7-carboxamide], with 96.2%.
As for `O=C(NO)c1ccc2ccn(CCCOc3ccccc3C(F)(F)F)c(=O)c2c1` [Compound I-52, N-hydroxy-1-oxo-2-{3-[2-(trifluoromethyl)phenoxy]propyl}-1,2-dihydroisoquinoline-7-carboxamide], the inhibition at 0.412 µM was found to be 90%.
The same measure, in the same setting: then `Cc1ccc(Cn2ccc3ccc(C(=O)NO)cc3c2=O)cc1F` [Compound I-54, 2-(3-fluoro-4-methylbenzyl)-N-hydroxy-1-oxo-1,2-dihydroisoquinoline-7-carboxamide], with 94.5%; and `O=C(NO)c1ccc2ncn(Cc3cccc(OC(F)(F)F)c3)c(=O)c2c1` [Compound I-55, N-hydroxy-4-oxo-3-[3-(trifluoromethoxy)benzyl]-3,4-dihydroquinazoline-6-carboxamide], with 93.9%.
Same read-out and setting: then `CC(C)(C)OC(=O)N1CCC(NCc2nc3cc(C(=O)NO)ccc3c(=O)[nH]2)CC1` [Compound I-56, tert-butyl 4-[({7-[(hydroxyamino)carbonyl]-4-oxo-3,4-dihydroquinazolin-2-yl}methyl)amino]piperidine-1-carboxylate], with 69%.
